According to the NIST ThermoML archive (doi:10.1016/j.tca.2013.09.034):

Assay: mn = molality of the nth substance listed, in mol/kg
Conditions: 101 kPa, Liquid; for speed of sound: Sing-around technique in a fixed-path interferometer; for mass density: Vibrating tube method

CCCCn1cc[n+](C)c1C.[Cl-] [1-butyl-2,3-dimethylimidazolium chloride] + O
Conditions	mass density, 288.15 K [kg/m3]	mass density, 298.15 K [kg/m3]	mass density, 308.15 K [kg/m3]	speed of sound, 288.15 K [m/s]	speed of sound, 298.15 K [m/s]	speed of sound, 308.15 K [m/s]
m1 = 0.0354	999.41	997.296	994.233	1471.7	1502.4	1525.2
m1 = 0.0466	999.559	997.434	994.36	1480.1	1508.2	1530.4
m1 = 0.0575	999.712	997.614	994.516	1484.9	1512.1	1533
m1 = 0.0702	999.936	997.784	994.679	1489.8	1515.5	1535.5
m1 = 0.0932	1000.31	998.103	994.956	1498	1520.7	1539.2
m1 = 0.1164	1000.68	998.419	995.243	1502.9	1525.7	1543.5
m1 = 0.1401	1000.99	998.698	995.547	1505.3	1527.9	1546.4
m1 = 0.1635	1001.1	998.836	995.675	1506.4	1529.3	1547.4
m1 = 0.1862	1001.01	998.743	995.587	1507.5	1530.5	1549.1
m1 = 0.2082	1000.78	998.556	995.17	1508.2	1531.5	1550
m1 = 0.2329	1000.25	998.134	994.487	1509.1	1532.1	1550.6
